Experimental data as given in patent US6586368B1, “Condensed heterocylic compounds and herbicides containing them” (Sumitomo Chemical Company, Limited, priority 1998, dated 2003).

What was measured:
Format in all cases: in vivo
[1] = test system: velvetleaf (Abutilon theophrasti); experiment: Test Example 1: foliage treatment of velvetleaf in pots, herbicidal activity; settings: emulsifiable concentrate sprayed over the foliage, dosage of 2000 g/ha, 1000 liters per hectare, plants 14 days after seeding, examined after 8 days in greenhouse
[2] = test system: velvetleaf (Abutilon theophrasti); experiment: Test Example 3: soil surface treatment, velvetleaf seeded in pots, herbicidal activity; settings: emulsifiable concentrate sprayed over the surface of the soil after seeding, dosage of 2000 g/ha, 1000 liters per hectare, examined after 9 days in greenhouse
[3] = test system: barnyardgrass (Echinochloa oryzicola); experiment: Test Example 4: flooded paddy field treatment of barnyardgrass in pots, herbicidal activity; settings: emulsifiable concentrate applied on the water surface of flooded pots, dosage of 1000 g/ha, 50 liters per are, plants 12 days after seeding, examined after 9 days in greenhouse

COc1ccc2occ(-n3c(=O)cc(C(F)(F)F)n(C)c3=O)c2c1 [Compound 1-5, 3-(5-Methoxybenzo[b]furan-3-yl)-1-methyl-6-(trifluoromethyl)-1,2,3,4-tetrahydropyrimidine-2,4-dione]
herbicidal activity: growth of velvetleaf [1]: completely inhibited the growth
herbicidal activity: germination of velvetleaf [2]: completely inhibited the germination
herbicidal activity: growth of barnyardgrass [3]: completely inhibited the growth

CCOC(=O)C(C)Oc1ccc2occ(-n3c(=O)cc(C(F)(F)F)n(C)c3=O)c2c1 (stereo not drawn) [Compound 1-127, Ethyl 2-({3-[3-methyl-2,6-dioxo-4-(trifluoromethyl)-1,2,3,6-tetrahydropyrimidin-1-yl]benzo[b]furan-5-yl}oxy)propanoate]
herbicidal activity: growth of velvetleaf [1]: completely inhibited the growth
herbicidal activity: germination of velvetleaf [2]: completely inhibited the germination
herbicidal activity: growth of barnyardgrass [3]: completely inhibited the growth

Cn1c(C(F)(F)F)cc(=O)n(-c2coc3cc([N+](=O)[O-])ccc23)c1=O [Compound 1-282]
herbicidal activity: growth of velvetleaf [1]: completely inhibited the growth
herbicidal activity: germination of velvetleaf [2]: completely inhibited the germination
herbicidal activity: growth of barnyardgrass [3]: completely inhibited the growth

CC(=O)Nc1ccc2occ(-n3c(=O)cc(C(F)(F)F)n(C)c3=O)c2c1 [Compound 1-24]
herbicidal activity: growth of velvetleaf [1]: completely inhibited the growth
herbicidal activity: germination of velvetleaf [2]: completely inhibited the germination

Cn1c(C(F)(F)F)cc(=O)n(-c2coc3cc([N+](=O)[O-])c(O)cc23)c1=O [Compound 1-82]
herbicidal activity: growth of velvetleaf [1]: completely inhibited the growth
herbicidal activity: germination of velvetleaf [2]: completely inhibited the germination
herbicidal activity: growth of barnyardgrass [3]: completely inhibited the growth

CCOC(=O)C(C)Nc1ccc2occ(-n3c(=O)cc(C(F)(F)F)n(C)c3=O)c2c1 (stereo not drawn) [Compound 1-11]
herbicidal activity: growth of velvetleaf [1]: completely inhibited the growth
herbicidal activity: germination of velvetleaf [2]: completely inhibited the germination
herbicidal activity: growth of barnyardgrass [3]: completely inhibited the growth

Cc1cc2c(-n3c(=O)cc(C(F)(F)F)n(C)c3=O)coc2cc1[N+](=O)[O-] [Compound 1-361]
herbicidal activity: growth of velvetleaf [1]: completely inhibited the growth
herbicidal activity: germination of velvetleaf [2]: completely inhibited the germination
herbicidal activity: growth of barnyardgrass [3]: completely inhibited the growth

CNc1ccc2occ(-n3c(=O)cc(C(F)(F)F)n(C)c3=O)c2c1 [Compound 1-8]
herbicidal activity: growth of velvetleaf [1]: completely inhibited the growth
herbicidal activity: germination of velvetleaf [2]: completely inhibited the germination
herbicidal activity: growth of barnyardgrass [3]: completely inhibited the growth

CCOC(=O)C(C)Oc1cc2c(-n3c(=O)cc(C(F)(F)F)n(C)c3=O)coc2cc1[N+](=O)[O-] (stereo not drawn) [Compound 1-131]
herbicidal activity: growth of velvetleaf [1]: completely inhibited the growth
herbicidal activity: germination of velvetleaf [2]: completely inhibited the germination
herbicidal activity: growth of barnyardgrass [3]: completely inhibited the growth

Cn1c(C(F)(F)F)cc(=O)n(-c2csc3cc(Cl)ccc23)c1=O [Compound 1-864]
herbicidal activity: growth of barnyardgrass [3]: completely inhibited the growth

O=C1C2=C(CCCC2)C(=O)N1c1noc2ccccc12 [Compound 2-4]
herbicidal activity: growth of velvetleaf [1]: completely inhibited the growth

CC(=O)N(C)c1ccc2occ(-n3c(=O)cc(C(F)(F)F)n(C)c3=O)c2c1 [Compound 1-28]
herbicidal activity: growth of velvetleaf [1]: completely inhibited the growth
herbicidal activity: germination of velvetleaf [2]: completely inhibited the germination
